Reference: US8735152B2, “Methods for inducing cell death in pluripotent stem cells and differentiated cells other than cardiac myocytes” (Daiichi Sankyo Company, Limited, priority 2009, dated 2014)

Tests used:
Assay type in all cases: cell-based
embryonic stem cells = experiment: Study of mannitol concentration and duration of exposure versus cell death of embryonic stem cells; settings: 1M (substantially saturated concentration)
Text: The present inventors prepared hypertonic solutions containing mannitol dissolved in it at high concentrations and applied those hypertonic solutions to a mixed cell system comprising embryonic stem cells as well as cardiomyocytes and non-cardiomyocytes; they found the fact that upon exposure to the hypertonic solutions, the embryonic stem cells and non-cardiomyocytes were more likely to undergo cell death.

[1] = test system: human embryonic stem cells; experiment: Cell death inducing effect on human embryonic stem cells (TMRM FACS, 5-day adherent culture); settings: 0.45 M
Method: The human embryonic stem cells were obtained from Stem Cell Research Center, Institute for Frontier Medical Sciences, Kyoto University (ES cell center sponsored by the National Bio-Resource Project) (Suemori, H et al., Biochem. Biophys. Res. Commun., Vol. 345, 2006, pp. 926-932). The cells were cultured basically in accordance with the method described in this document. To be more specific, the human embryonic stem cells were cultured to maintain their undifferentiated state using mouse embryonic fibroblasts (MEF) that had been inactivated for growth by treatment with mitomycin C. The culture medium of F12/DMEM (1:1) (SIGMA; Product No. D6421), supplemented with 20% KO-SERUM (GIBCO), 1.6 mM L-glutamine, 0.1 mM non-essential amino acids (MEM), 0.1 mM β-mercaptoethanol (2-ME; Sigma), 100 IU/ml penicillin, 100 μg/ml streptomycin sulfate, and recombinant human basic fibroblast growth factor (bFGF; Reprotech) was used. Upon passaging, the cells were treated with 0.1% type III collagenase (Wortington) at 37° C. for 10 minutes to separate embryonic stem cell colonies. After passaging, the cells were dispersed with each other using TE (0.25% trypsin (GIBCO) and 1 mM EDTA) and in accordance with a published document (Watanabe, K. et al., Nat. Biotechnol., 2007, 25: 681-686, Epub 2007 May 27), 10 μM of a ROCK inhibitor (Y27632) was added to suppress cell death. At the same time, the mitochondria in the live cells were stained with 50 nM TMRM. Part of the stained cells were treated with an α-MEM culture medium containing 0.45 M mannitol (approximately equivalent to 720 mOsm/kg) for 2, 3 or 4 hours and three samples were prepared from these cells; the rest of the stained cells were treated with a mannitol-free α-MEM culture medium for 2 hours and a sample was prepared from these cells as a control. In the control, cells were aggregated with each other to make masses, so before FACS analysis, the treated groups and the control were given another treatment with trypsin and EDTA to disperse the cells. The cells treated with mannitol for 2, 3 or 4 hours and the control cells were analyzed by FACS for the level of mitochondrial membrane potential on the basis of the fluorescent intensity of TMRM to check the state of survival of the stem cells; the results are shown in FIG. 7. […] In addition, the TMRM-stained cells were photographed, both for the case of 2-h treatment with mannitol and for the control (FIG. 8)). […] Changes in the mitochondrial membrane potential were observed using the experimental technique of Example 5, provided that the human embryonic stem cells were treated not with mannitol, but with 0.45 M of various other saccharides (sugar alcohols: sorbitol and xylitol; sugars: sucrose and glucose; betaines: trimethylglycine) (approximately equivalent to 750-780 mOsm/kg) for 2 hours.

[2] = test system: marmoset embryonic stem cells; experiment: Cell death inducing effect on marmoset embryonic stem cells (TMRM FACS, 5-day adherent culture); settings: 0.45 M, 2 hours
Method: The marmoset embryonic stem cells were obtained from the Central Institute for Experimental Animals (Stem Cells, 2005 October; 23(9): 1304-13). The cells were cultured basically in accordance with the method described in this document. To be more specific, the marmoset embryonic stem cells were cultured to maintain their undifferentiated state using mouse embryonic fibroblasts (MEF) that had been inactivated for growth by treatment with mitomycin C. The culture medium of KO-DMEM (GIBCO), supplemented with 20% KO-SERUM (GIBCO), 1.6 mM L-glutamine, 0.1 mM non-essential amino acids (MEM), 0.2 mM β-mercaptoethanol (2-ME; Sigma), 100 IU/ml penicillin, 100 μg/ml streptomycin sulfate, and 8 ng/ml recombinant human leukemia inhibiting factor (LIF; Chemicon) or recombinant human basic fibroblast growth factor (bFGF; Peprotech) was used. Upon passaging, the cells were treated with 0.1% type III collagenase (Wortington) at 37° C. for 10 minutes to separate ES colonies. […] Thereafter, the cells treated with mannitol for 2 hours and the control cells were analyzed by FACS for the level of mitochondrial membrane potential on the basis of the fluorescent intensity of TMRM to check the state of survival of the stem cells; the results are shown in FIG. 5. […]

[3] = test system: mouse embryonic stem cell-derived cardiomyocytes, residual undifferentiated embryonic stem cells and other cells; experiment: Mannitol treatment of culture system containing both embryonic stem cell-derived cardiomyocytes and residual embryonic stem cells; settings: 0.45 M, 36 hours
Method: Mouse derived embryonic stem cells were treated by the method of Example 1 to form embryoid bodies, which were differentiated to a stage containing the programmed cardiomyocytes (precardiac mesoderms). Thus obtained embryoid bodies were treated with digestive enzymes (trypsin and collagenase) meticulously to ensure that no cell damage would be caused and the resulting partially dispersed embryoid bodies were subjected to another adherent culture. Upon a 5-day continued culture, populations of cardiomyocytes pulsating autonomously (the cell populations circled by the red lines), cell populations having the traits of embryonic stem cells-like cells (the cell populations circled by the yellow lines), and other cell populations were observed together (see FIG. 2(a)). In the next step, the culture medium for the mixed culture was replaced by a serum-free α-MEM culture medium containing mannitol in 0.45 M (approximately equivalent to 720 mOsm/kg) and ITS {insulin (10 mg/L), transferrin (5.5 mg/L), and sodium selenite ([…])} (GIBCO) and culture was performed for 36 hours. […] Subsequently, the culture medium was replaced by an α-MEM culture medium supplemented with 20% fetal calf serum and culture was continued, whereupon the cardiomyocytes restored autonomous pulsation in 1 or 2 days.

OC[C@@H](O)[C@@H](O)[C@H](O)[C@H](O)CO [mannitol]
Cell death in embryonic stem cells (embryonic stem cells): induced cell death in embryonic stem cells within a short period of time | Mitochondrial membrane potential (TMRM fluorescence, FACS) ([1]; 2 hours): almost all of the cells treated with mannitol for 2 hours had lost membrane potential | Self-aggregation of cells immediately after treatment ([1]; 2 hours, photographs of TMRM-stained cells): remained dispersed | Survival after adherent culture for 5 days ([1]; then 5 days adherent culture): none of the cells exposed to mannitol were found live | Mitochondrial membrane potential (TMRM fluorescence, FACS) [2]: almost all of the cells treated with mannitol for 2 hours had lost membrane potential | Survival after adherent culture for 5 days ([2]; then 5 days adherent culture): none of the cells exposed to mannitol were found alive | State of cells other than cardiomyocytes (cell death) ([3]; then culture in medium with 20% fetal calf serum): virtually all cells other than cardiomyocytes were found dead | Nkx 2.5 positive cardiomyocytes among the obtained cells ([3]; immunostaining): ≥ 98%
